Like-named read-outs stand apart in the source and are kept apart here.
Tests used:
[1] = test system: Raw 264.7 (ATCC TIB71) cells; assay: Evaluation of cell survival rate of macrophages (MTT); format: cell-based, mouse; conditions: Raw 264.7, 10 μM, 24 hours
Protocol: Raw 264.7 (ATCC TIB71) cells, the mouse derived macrophages', were inoculated in a 96-well plate containing DMEM (Dulbecco's modified Eagle medium; Welgene, Korea) supplemented with 10% FBS (Fetal Bovine Serum), 2 mM glutamine, penicillin (100 unit/ml), and streptomycin (100 μg/ml) at the density of 1×10^4 cells/well. The cells were cultured in 5% CO2 at 37° C. for 4 hours to attach the cells onto the plate. Next, the cells were treated with each sample at different concentrations, followed by further culture for 24 hours. To investigate the cell survival rate, 5 mg/ml of MTT (3-(4,5-dimethylthiazol-2-yl)-2,5-diphenyltetrazoliumbromide, Amresco, OH, USA) was distributed thereto (10 μl/well), followed by culture for 4 hours. Then, the supernatant was eliminated. Formazan reduced from MTT by mitochondria was dissolved in 100 μl of DMSO and then OD570 was measured. 0.2% DMSO was used for the negative control.

[2] = test system: Nitrogen Oxide (NO) generation; assay: Inhibition of nitrogen oxide (NO) generation in LPS-treated Raw 264.7 cells (Griess); format: cell-based, mouse; conditions: Raw 264.7, LPS 500 ng/ml, 24 hours
Protocol: Raw 264.7 (ATCC TIB71) cells were inoculated in a 96-well plate containing the same medium as used in Experimental Example 1 at the density of 1×10^5 cells/well. The cells were cultured in 5% CO2 at 37° C. for 4 hours to attach the cells onto the plate. The cells were treated with each sample at different concentrations, followed by further culture for 1 hour. […] were treated thereto at the final concentration of 500 ng/ml, followed by further culture for 24 hours. 100 μl of the supernatant was taken and transferred in a new plate, which was mixed with Griess reagent (a mixture of 1% sulfanilamide, 0.1% N-[1-naphthyl]-ethylenediamine dihydrochloride, and 5% phosphoric acid), followed by reaction for 10 minutes. Then, OD540 was measured. NO generation was quantified by using the sodium nitrite standard curve prepared from […] dissolved in the same medium at different concentrations. Considering the NO generation of the inflammation induced macrophages as 100%, the NO generation inhibition rate was calculated and presented in Table 7.

[3] = test system: interleukin-6 (IL-6) generation; assay: Inhibition of interleukin-6 (IL-6) generation in LPS-treated Raw 264.7 cells (ELISA); format: cell-based, mouse; conditions: Raw 264.7, LPS treated, read-out: Grades of IC50 on IL-6 generation
Protocol: Raw 264.7 cells were distributed by the same manner as described in Experimental Example <2-1>, and IL-6 included in the supernatant treated with each sample at different concentrations was measured by enzyme-linked immunosorbent assay (IL-6 ELISA kit, BD Bioscience, San Diego, Calif.).
(§1) Particularly, 10-fold diluted supernatant was distributed in a 96-well plate on which IL-6 antibody was attached, followed by adhesion for 2 hours. The supernatant remaining after the adhesion was washed with a washing buffer. The detection antibody and HRP were adhered on the washed plate for 1 hour. The remaining antibody was washed. Color development was induced by using TMB substrate. The reaction was terminated with sulfuric acid solution. Then, OD450 was measured. IL-6 in the supernatant was quantified by using the standard curve made with the standard IL-6 included in the kit. IL-6 suppression rate was calculated by measuring the same concentration that could inhibit IL-6 generation up to 50% in the LPS treated group and the results are shown in Table 8.

[4] = test system: Tumor Necrosis Factor Alpha (TNF-alpha); assay: Inhibition of TNF-alpha generation in LPS-treated Raw 264.7 cells (ELISA); format: cell-based; conditions: Mus musculus, RAW264.7; Raw 264.7, LPS treated; read-out: Grades of IC50 on TNF-alpha generation
Protocol: Raw 264.7 cells were distributed by the same manner as described in Experimental Example <2-1>, which were treated with the samples selected due to their high NO and IL-6 suppressing effect at different concentrations. TNF-alpha included in the supernatant was measured by enzyme-linked immunosorbent assay (TNF-alpha ELISA kit, R&D Systems, MN, USA).
as §1, with “100-fold” for “10-fold”, “TNF-alpha” for “IL-6”, “9.” for “8.”

[5] = Rheumatoid arthritis (collagen-induced) model: weight changes; format: in vivo, mouse; conditions: DBA/1 CIA mice, 30 mg/kg oral, FIG. 10
Protocol: Bovine type II collagen (100 μg/mouse, Hondrax, Seattle, USA) and complete Freund's adjuvant (Chondrex, Seattle, USA) were intradermally injected in the tail of 7˜9 DBA/1 male mouse. On day 21, 100 μg of bovine type II collagen was mixed with incomplete Freund's adjuvant (IFA), which was injected in the tail of each mouse once again to induce arthritis.

SMILES | IC50 ([3]; Mus musculus, RAW264.7) | weight change [5] | Grades of cell survival rate (%, in 10 μM) [1] | Grades of NO generation inhibition rate (%) [2] | IC50 [3] | IC50 [4]
COc1ccc(-c2cc3cc(CCCO)cc(OC)c3o2)cc1O [Example 23, 5-(5-(3-hydroxypropyl)-7-methoxybenzofuran-2-yl)-2-methoxyphenol] | 40 to 50 µM | – | B (B: 80<B≤90) | C (C: 15<C≤25) | – | –
COc1cccc(CCc2cc(CCCO)cc(OC)c2O)c1 [Example 17, 4-(3-hydroxypropyl)-2-methoxy-6-(3-methoxypenethyl)phenol] | – | – | B (B: 80<B≤90) | C (C: 15<C≤25) | 40 to 50 µM | –
COc1cc(CCCO)cc2cc(-c3cccc(F)c3)oc12 [Example 8, 3-(2-(3-fluorophenyl)-7-methoxybenzofuran-5-yl)propane-1-ol] | 40 to 50 µM | – | A (A: 90<A≤100) | C (C: 15<C≤25) | – | –
COc1cc(CCCO)cc(CCc2ccc(C)cc2)c1O [Example 16, 4-(3-hydroxypropyl)-2-methoxy-6-(4-methylpenethyl)phenol] | – | – | A (A: 90<A≤100) | C (C: 15<C≤25) | 30 to 40 µM | –
COc1cccc(-c2cc3cc(CCCO)cc(OC)c3o2)c1 [Example 5, 3-(7-methoxy-2-(3-methoxyphenyl)benzofuran-5-yl)propane-1-ol] | 40 to 50 µM | – | A (A: 90<A≤100) | C (C: 15<C≤25) | – | –
COc1cc(CCCO)cc2cc(-c3ccc(N(C)C)cc3)oc12 [Example 9, 3-(2-(4-(dimethylamino)phenyl)-7-methoxybenzofuran-5-yl)propane-1-ol] | 40 to 50 µM | – | A (A: 90<A≤100) | C (C: 15<C≤25) | – | –
COc1cc(CCCO)cc2cc(-c3cccc(C)c3)oc12 [Example 3, 3-(7-methoxy-2-m-tolylbenzofuran-5-yl)propane-1-ol] | 40 to 50 µM | – | A (A: 90<A≤100) | A (A: 35<A≤100) | – | –
COc1ccc(-c2cc3cc(CO)cc(OC)c3o2)cc1OC [Example 18, [2-(3,4-dimethoxyphenyl)-7-methoxybenzofuran-5-yl]methanol] | 40 to 50 µM | – | A (A: 90<A≤100) | C (C: 15<C≤25) | – | –
COc1ccc(-c2cc3cc(CCCO)cc(OC)c3o2)cc1 [Example 7, 3-(7-methoxy-2-(4-methoxyphenyl)benzofuran-5-yl)propane-1-ol] | 40 to 50 µM | – | A (A: 90<A≤100) | D (D: 5<D≤15) | – | –
COc1ccc(CCc2cc(CCCO)cc(OC)c2O)cc1OC [Example 14, 2-(3,4-dimethoxyphenethyl)-4-(3-hydroxypropyl)-6-methoxyphenol] | – | – | C (C: 70<C≤80) | C (C: 15<C≤25) | – | –

Second part, led by results:

IC50 ([3]; Mus musculus, RAW264.7) | weight change [5] | SMILES | Grades of cell survival rate (%, in 10 μM) [1] | Grades of NO generation inhibition rate (%) [2] | IC50 [3] | IC50 [4]
20 to 30 µM | – | COc1ccc(-c2cc3cc(CCCOC(C)=O)cc(OC)c3o2)cc1OC [Example 28, 3-(2-(3,4-dimethoxyphenyl)-7-methoxybenzofuran-5-yl)propyl acetate] | A (A: 90<A≤100) | B (B: 25<B≤35) | – | 1 to 3 µM
≤ 10 µM | – | COc1cc(-c2cc3cc(CCCO)cc(OC)c3o2)ccc1O [Example 22, 4-(5-(3-hydroxypropyl)-7-methoxybenzofuran-2-yl)-2-methoxyphenol] | A (A: 90<A≤100) | A (A: 35<A≤100) | – | 3 to 5 µM
20 to 30 µM | – | COc1ccc(-c2cc3cc(CCO)cc(OC)c3o2)cc1OC [Example 20, 2-[2-(3,4-dimethoxyphenyl)-7-methoxybenzofuran-5-yl]ethanol] | B (B: 80<B≤90) | A (A: 35<A≤100) | – | –
10 to 20 µM | – | COc1cc(CCCO)cc2cc(-c3cc(O)cc(O)c3)oc12 [Example 24, 5-(5-(3-hydroxypropyl)-7-methoxybenzofuran-2-yl)benzene-1,3-diol] | A (A: 90<A≤100) | A (A: 35<A≤100) | – | 5 to 10 µM
≤ 10 µM | – | COc1cc(-c2cc3cc(CCCO)cc(OC)c3o2)cc(OC)c1O [Example 26, 4-(5-(3-hydroxypropyl)-7-methoxybenzofuran-2-yl)-2,6-dimethoxyphenol] | A (A: 90<A≤100) | A (A: 35<A≤100) | – | 1 to 3 µM
10 to 20 µM | – | COc1ccc(-c2cc3cc(CCCO)cc(OC)c3o2)cc1OC [Example 1, 3-[2-(3,4-dimethoxyphenyl)-7-methoxybenzofuran-5-yl]propane-1-ol] | A (A: 90<A≤100) | D (D: 5<D≤15) | – | 5 to 10 µM
≤ 10 µM | no weight change observed | COc1cc(CCCO)cc2cc(-c3ccc(O)c(O)c3)oc12 [Example 25, 4-(5-(3-hydroxypropyl)-7-methoxybenzofuran-2-yl)benzene-1,2-diol] | A (A: 90<A≤100) | A (A: 35<A≤100) | – | 1 to 3 µM
10 to 20 µM | – | COc1cc(CCCO)cc2cc(-c3cc(F)cc(F)c3)oc12 [Example 6, 3-[2-(3,5-difluorophenyl)-7-methoxybenzofuran-5-yl]propane-1-ol] | A (A: 90<A≤100) | B (B: 25<B≤35) | – | 15 to 17 µM
20 to 30 µM | – | COc1ccc(-c2cc3cc(CCCO)cc(O)c3o2)cc1OC [Example 27, 2-(3,4-dimethoxyphenyl)-5-(3-hydroxypropyl)benzofuran-7-ol] | B (B: 80<B≤90) | D (D: 5<D≤15) | – | –
≤ 10 µM | – | COc1ccc(-c2cc3cc(CCCO)cc(OC)c3o2)c(C)c1 [Example 2, 3-(7-methoxy-2-(4-methoxy-2-methylphenyl)benzofuran-5-yl)propane-1-ol] | A (A: 90<A≤100) | A (A: 35<A≤100) | – | 3 to 5 µM

From US10053443B2, “2-phenylbenzofuran derivatives, method for preparing the same and use of the same for treating inflammatory disease” (KOREA RESEARCH INSTITUTE OF BIOSCIENCE AND BIOTECHNOLOGY, priority 2014, dated 2018)
